Patent US20250215029A1 (Recludix Pharma, Inc., priority 2022, published 2025)
Read-outs that look alike come from different tables or passages of the source.

Experiments:
[1] = biological target: T1, Recombinant STAT3 protein (STAT3 (G127-I722)) (Homo sapiens, UniProt P40763); assay: STAT3 Fluorescence Polarization (FP) Assay; assay type: binding; details: probe 5-FAM-GpYLPQTV-NH2 2 nM, 45-minute incubation
T1 construct: Recombinant STAT3 protein (STAT3 (G127-I722))
How it was run: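 Displacement of a 2 nM 5-FAM-labelled pY peptide (GpYLPQTV) from 25 nM recombinant STAT3 (G127-I722) was monitored by fluorescence polarization. Incubation lasted 45 min at room temperature in pH 7.4 HEPES buffer containing 1% DMSO.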

[2] = biological target: T2, Recombinant STAT6 protein (STAT6 (W123-T658)) (Homo sapiens, UniProt P42226); assay: STAT6 Fluorescence Polarization (FP) Assay; assay type: binding; details: 45-minute incubation
T2 construct: Recombinant STAT6 protein (STAT6 (W123-T658))
T2 sequence (P42226 123-658): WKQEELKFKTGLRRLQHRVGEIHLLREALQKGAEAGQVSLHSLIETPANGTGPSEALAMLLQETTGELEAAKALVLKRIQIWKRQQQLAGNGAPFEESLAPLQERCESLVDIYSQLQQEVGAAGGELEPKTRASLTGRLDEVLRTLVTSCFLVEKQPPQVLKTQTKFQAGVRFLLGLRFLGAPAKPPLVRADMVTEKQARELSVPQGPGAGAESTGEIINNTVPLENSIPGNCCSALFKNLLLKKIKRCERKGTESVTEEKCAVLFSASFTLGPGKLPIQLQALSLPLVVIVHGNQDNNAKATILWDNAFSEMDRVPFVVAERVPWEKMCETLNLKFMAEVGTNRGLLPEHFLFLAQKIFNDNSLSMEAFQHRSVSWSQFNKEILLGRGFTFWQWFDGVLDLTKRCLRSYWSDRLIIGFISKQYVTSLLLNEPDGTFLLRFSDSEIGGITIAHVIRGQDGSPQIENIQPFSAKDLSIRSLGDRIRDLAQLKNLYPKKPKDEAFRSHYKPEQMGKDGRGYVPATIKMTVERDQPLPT
How it was run: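 Fluorescence polarization (mP) read-out: 250 nM STAT6 (W123-T658) plus 2 nM 5-FAM phosphotyrosine peptide, 45 min, room temperature, 1% DMSO. IC50 by nonlinear fit of mP against log compound concentration.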

[3] = STAT3 25 nM, read-out: STAT3 (FP assay IC50)
[4] = STAT6 250 nM, probe 5-FAM-Ap[…]-NH2 2 nM, read-out: STAT6 (FP assay IC50)
[5] = STAT3 (G127-I722) 25 nM, read-out: STAT3 (FP assay IC50 class)
[6] = STAT6 (W123-T658) 250 nM, probe 5-FAM-ApYKPFQDLI-NH2 2 nM, read-out: STAT6 (FP assay IC50 class)

T1 sequence (P40763 127-722): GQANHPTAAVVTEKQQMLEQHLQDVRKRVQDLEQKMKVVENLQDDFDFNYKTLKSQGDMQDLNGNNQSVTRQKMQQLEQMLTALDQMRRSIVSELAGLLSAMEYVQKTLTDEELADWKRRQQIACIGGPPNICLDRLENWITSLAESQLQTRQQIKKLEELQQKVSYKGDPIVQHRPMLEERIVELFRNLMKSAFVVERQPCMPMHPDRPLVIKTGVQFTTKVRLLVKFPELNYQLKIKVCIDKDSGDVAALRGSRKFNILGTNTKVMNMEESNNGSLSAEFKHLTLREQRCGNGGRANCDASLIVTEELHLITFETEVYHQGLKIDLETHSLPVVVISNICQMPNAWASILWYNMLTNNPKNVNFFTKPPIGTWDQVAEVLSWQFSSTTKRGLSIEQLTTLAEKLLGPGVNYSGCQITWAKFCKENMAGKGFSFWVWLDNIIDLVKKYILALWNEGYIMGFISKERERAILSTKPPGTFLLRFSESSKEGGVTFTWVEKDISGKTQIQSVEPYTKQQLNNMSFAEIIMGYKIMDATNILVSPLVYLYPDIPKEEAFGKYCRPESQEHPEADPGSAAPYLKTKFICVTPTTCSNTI

IC50 [1, 3] | IC50 [2, 4] | IC50 [1, 5] | IC50 ([2]; STAT6 (W123-T658) 250 nM, probe 5-FAM-Ap[…]-NH2 2 nM, read-out: STAT6 (FP assay IC50 class)) | IC50 [2, 6] | Compound
0.1 to 1 µM | 0.3 to 3 µM |  |  |  | C[C@H]1C[C@H]2CC[C@@H](C(=O)N3CC[C@@H](c4ccccc4)C3)N2C(=O)[C@@H](NC(=O)c2cc3cc(C(F)(F)P(=O)(O)O)ccc3s2)CC1O (stereo in doubt) [Compound 101, (difluoro(2-(((3S,6S,8S,9S, 10aR)-8-hydroxy-9-methyl-5-oxo-3-((S)-3-phenylpyrrolidine-1-carbonyl)decahydropyrrolo [1,2-a]azocin-6-yl)carbamoyl)benzo[b]thiophen-5-yl)methyl) phosphonic acid]
 |  | 1 to 10 µM | ≤ 0.3 µM |  | N#CC1C(c2ccccc2)CN(C(=O)[C@@H]2CC[C@@H]3CCC[C@H](NC(=O)c4cc5cc(C(F)(F)P(=O)(O)O)ccc5s4)C(=O)N32)C12CC2 (stereo in doubt) [Compound 865, ((2-(((3S,6S,9aS)-3-((6S,7R)-7-cyano-6-phenyl-4-azaspiro[2.4]heptane-4-carbonyl)-5-oxooctahydro-1H-pyrrolo[1,2-a]azepin-6-yl)carbamoyl)benzo [b]thiophen-5-yl)difluoromethyl) phosphonic acid]
 |  | 1 to 10 µM |  | ≤ 0.3 µM | O=C(N[C@H]1CCCC[C@H]2CC[C@@H](C(=O)N3CC(c4cccnc4)CC34CC4)N2C1=O)c1cc2cc([C@@H](F)P(=O)(O)O)ccc2s1 (stereo in doubt) [Compound 910, ((S)-fluoro(2-(((3S,6S,10aS)-5-oxo-3-((R)-6-(pyridin-3-yl)-4-azaspiro[2.4]heptane-4-carbonyl)decahydropyrrolo[1,2-a]azocin-6-yl)carbamoyl)benzo [b]thiophen-5-yl)methyl) phosphonic acid]
 |  | 1 to 10 µM |  | ≤ 0.3 µM | N#CC1C(c2ccccc2)CN(C(=O)[C@@H]2CC[C@@H]3CCC[C@H](NC(=O)c4cc5cc([C@@H](F)P(=O)(O)O)ccc5s4)C(=O)N32)C12CC2 (stereo in doubt) [Compound 921, ((S)-(2-(((3S,6S,9aS)-3-((6R,7S)-7-cyano-6-phenyl-4-azaspiro[2.4]heptane-4-carbonyl)-5-oxooctahydro-1H-pyrrolo[1,2-a]azepin-6-yl)carbamoyl)benzo [b]thiophen-5-yl)fluoromethyl) phosphonic acid]
> 10 µM | 0.3 to 3 µM |  |  |  | CN(C(=O)[C@@H]1CC[C@@H]2CCCC[C@H](NC(=O)c3cc4cc(C(F)(F)P(=O)(O)O)ccc4[nH]3)C(=O)N21)c1ccccc1 [Compound 1, (difluoro(2-(((3S,6S,10aS)-3-(methyl(phenyl)carbamoyl)-5-oxodecahydropyrrolo[1,2-a]azocin-6-yl)carbamoyl)-1H-indol-5-yl)methyl)phosphonic acid]
0.1 to 1 µM | 3 to 30 µM |  |  |  | O=C(N[C@H]1CC[C@@H](O)C[C@H]2CC[C@@H](C(=O)N3CC(C(=O)N4CCOCC4)C3)N2C1=O)c1cc2cc(C(F)(F)P(=O)(O)O)ccc2s1 [Compound 2, (difluoro(2-(((3S,6S,9R,10aR)-9-hydroxy-3-(3-(morpholine-4-carbonyl)azetidine-1-carbonyl)-5-oxodecahydropyrrolo [1,2-a]azocin-6-yl)carbamoyl)benzo[b]thiophen-5-yl)methyl) phosphonic acid]
0.1 to 1 µM | 3 to 30 µM |  |  |  | O=C(N[C@H]1C[C@H](O)CC[C@H]2CC[C@@H](C(=O)N3CC(C(=O)N4CCOCC4)C3)N2C1=O)c1cc2cc(C(F)(F)P(=O)(O)O)ccc2s1 [Compound 3, (difluoro(2-(((3S,6S,8R, 10aR)-8-hydroxy-3-(3-(morpholine-4-carbonyl)azetidine-1-carbonyl)-5-oxodeca-hydropyrrolo[1,2-a]azocin-6-yl)carbamoyl)benzo[b]thiophen-5-yl)methyl)phosphonic acid]
0.1 to 1 µM | 3 to 30 µM |  |  |  | O=C(N[C@H]1C[C@@H](O)CC[C@H]2CC[C@@H](C(=O)N3CC(C(=O)N4CCOCC4)C3)N2C1=O)c1cc2cc(C(F)(F)P(=O)(O)O)ccc2s1 [Compound 4, (difluoro(2-(((3S,6S,8S,10aR)-8-hydroxy-3-(3-(morpholine-4-carbonyl)azetidine-1-carbonyl)-5-oxodecahydropyrrolo [1,2-a]azocin-6-yl)carbamoyl)benzo[b]thiophen-5-yl)methyl) phosphonic acid]
